# Read-outs that look alike come from different tables or passages of the source.
# Assays:
# [1] = test system: aCD3/aCD28-stimulated human PBMCs; assay: Cytokine production in aCD3/aCD28 stimulated human PBMCs; format: cell-based; conditions: PBMC, 18 h
# Method in brief: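 Compound effects measured in buffy-coat PBMCs activated 18 h at 37° C by 1 μg/mL each of soluble anti-CD3 (OKT3) and anti-CD28 (28.2), 1e6 cells/mL. Cytokines in harvested supernatants read by MSD or HTRF.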
# [2] = test system: aCD3/aCD28-stimulated human CD4+-T-cells; assay: IL-2 production and activation markers in aCD3/aCD28 stimulated isolated human CD4+-T-cells; format: cell-based; conditions: IL-2 production at 3 μM compound
# Method: • Buffy coat content was transferred to sterile plastic bottle and filled up to 480 ml with PBS, and distributed equally to 16×50 ml tubes (30 ml/tube) • Underlayed with ˜11 ml Lymphoprep and centrifuged 20 min (2200 rpm) • The interphase containing lymphocytes was taken off with transfer pipette, cells were washed twice with PBS and pooled to one tube to determine cell count (Coulter Diff ACT) Isolation of Immune Cell Subfractions from PBMCs by MACS • PBMCs were resuspended in MACS buffer (80 μl MACS-buffer/10^7 cells) and cells were isolated with Auto-MACS device using respective kits following manufacturer's recommendations TCR Stimulation and Measurement of T Cell Activation
# Isolated T cells were plated in Xvivo medium at 1.5*10 ^5 cells per in 96 well culture plates and TCR-stimulated with anti-CD3/28 mAbs in the presence of compound as indicated. Cytokine production was determined at 24 h or 48 h following TCR stimulation in cell culture supernatants using commercially available ELISA kits (BD and eBioscience) as recommended by the manufacturer. T cell proliferation and CD25 expression (CD25-PC5 reagent purchased from Beckman Coulter) was determined by flow cytometry (Beckman-Coulter FC500) and analysed with Kaluza Software. For measurement of CD69 expression, isolated CD4 and CD8 T cells were plated in Xvivo medium at […] per in 96 well culture plates and TCR-stimulated with anti-CD3/28 mAbs in the presence of compound. CD69 expression was determined at 24 h following TCR stimulation by flow cytometry (CD4eF450, CD8APCeF780 and CD69-PC7 reagent purchased from eBioscience) and analysed with Kaluza Software.
# Buffy coats were obtained from Austrian Red Cross, diluted 3 fold with PBS and layered onto an isotonic Ficoll separating solution d=1.077 g/m in 50 ml centrifuge tubes. The tubes were centrifuged at 914 g for 25 min at room temperature with the brakes off. The PBMC layer was removed and washed twice with ice-cold PBS. CD4 T cells were isolated using CD4 microbeads (Milteny) and the AutoMACS device following manufacturer's instructions.
# Compound examples of the present invention were classified according to the following activity criteria and are listed in Table 4a: • Activity Class A: IL-2 production at 3 μM compound concentration >10 ng/mL • Activity Class B: IL-2 production at 3 μM compound concentration between 2-10 ng/mL • Activity Class C: IL-2 production at 3 μM compound concentration between 2-fold increase as compared to mean IL-2 production of stimulated cells in the absence of compounds and <2 ng/mL
# [3] = enhancement of IFN-γ production, read-out: Activity Class IFN-γ
# [4] = enhancement of IL-2 production, read-out: Activity Class IL-2
Structure (SMILES),"EC50 [1, 3]","EC50 [1, 4]",Activity Class CD4+ [2]
"CCCCNC(=O)c1ccc2c(c1)N(Cc1cccc(OC(F)(F)F)c1)C(=O)[C@@H](N)CS2.Cl [Example 9, (3R)-3-amino-N-butyl-4-oxo-5-{[3-(trifluoromethoxy)phenyl]methyl}-2,3,4,5-tetrahydro-1,5-benzothiazepine-7-carboxamide hydrochloride]",1.58 to 5.01 µM,> 5.01 µM,C (IL-2 production at 3 μM compound concentration between 2-fold increase as compared to mean IL-2 production of stimulated cells in the absence of compounds and <2 ng/mL)
"CCCCNC(=O)c1ccc2c(c1)N(Cc1ccc(Cl)cc1)C(=O)[C@@H](N)CS2.Cl [Example 10, (3R)-3-amino-N-butyl-5-[(4-chlorophenyl)methyl]-4-oxo-2,3,4,5-tetrahydro-1,5-benzothiazepine-7-carboxamide hydrochloride]",1.58 to 5.01 µM,> 5.01 µM,C (IL-2 production at 3 μM compound concentration between 2-fold increase as compared to mean IL-2 production of stimulated cells in the absence of compounds and <2 ng/mL)
"Cl.N[C@H]1CSc2ccc(C(=O)NCc3ccc(N4CCOCC4)cc3)cc2N(Cc2ccc(OC(F)(F)F)cc2)C1=O [Example 11, (3R)-3-amino-N-{[4-(morpholin-4-yl)phenyl]methyl}-4-oxo-5-{[4-(trifluoromethoxy)-phenyl]methyl}-2,3,4,5-tetrahydro-1,5-benzothiazepine-7-carboxamide hydrochloride]",> 5.01 µM,> 5.01 µM,C (IL-2 production at 3 μM compound concentration between 2-fold increase as compared to mean IL-2 production of stimulated cells in the absence of compounds and <2 ng/mL)
"CC(C)(C)C(=O)NCCCNC(=O)c1ccc2c(c1)N(Cc1ccc(OC(F)(F)F)cc1)C(=O)[C@@H](N)CS2.Cl [Example 12, N-(3-{[(3R)-3-amino-4-oxo-5-{[4-(trifluoromethoxy)phenyl]methyl}-2,3,4,5-tetrahydro-1,5-benzothiazepin-7-yl]formamido}propyl)-2,2-dimethylpropanamide hydrochloride]",> 5.01 µM,> 5.01 µM,C (IL-2 production at 3 μM compound concentration between 2-fold increase as compared to mean IL-2 production of stimulated cells in the absence of compounds and <2 ng/mL)
"CNC(=O)c1ccc2c(c1)N(Cc1ccc(OC(F)(F)F)cc1)C(=O)[C@@H](N)CS2.Cl [Example 17, (3R)-3-amino-N-methyl-4-oxo-5-{[4-(trifluoromethoxy)phenyl]methyl}-2,3,4,5-tetrahydro-1,5-benzothiazepine-7-carboxamide hydrochloride]",–,> 5.01 µM,C (IL-2 production at 3 μM compound concentration between 2-fold increase as compared to mean IL-2 production of stimulated cells in the absence of compounds and <2 ng/mL)
"CCNC(=O)c1ccc2c(c1)N(Cc1ccc(OC(F)(F)F)cc1)C(=O)[C@@H](N)CS2.Cl [Example 18, (3R)-3-amino-N-ethyl-4-oxo-5-{[4-(trifluoromethoxy)phenyl]methyl}-2,3,4,5-tetrahydro-1,5-benzothiazepine-7-carboxamide hydrochloride]",< 1.58 µM,1.58 to 5.01 µM,C (IL-2 production at 3 μM compound concentration between 2-fold increase as compared to mean IL-2 production of stimulated cells in the absence of compounds and <2 ng/mL)
"CCCCNC(=O)c1ccc2c(c1)N(Cc1ccc(C#N)cc1)C(=O)[C@@H](N)CS2.Cl [Example 21, (3R)-3-amino-N-butyl-5-[(4-cyanophenyl)methyl]-4-oxo-2,3,4,5-tetrahydro-1,5-benzothiazepine-7-carboxamide hydrochloride]",< 1.58 µM,> 5.01 µM,C (IL-2 production at 3 μM compound concentration between 2-fold increase as compared to mean IL-2 production of stimulated cells in the absence of compounds and <2 ng/mL)
"Cl.N[C@H]1CSc2ccc(C(=O)NCCCC(F)(F)F)cc2N(Cc2ccc(Cl)cc2)C1=O [Example 22, (3R)-3-amino-5-[(4-chlorophenyl)methyl]-4-oxo-N-(4,4,4-trifluorobutyl)-2,3,4,5-tetrahydro-1,5-benzothiazepine-7-carboxamide hydrochloride]",1.58 to 5.01 µM,1.58 to 5.01 µM,B (IL-2 production at 3 μM compound concentration between 2-10 ng/mL)
"Cl.N[C@H]1CSc2ccc(C(=O)NCC3CCOCC3)cc2N(Cc2ccc(Cl)cc2)C1=O [Example 23, (3R)-3-amino-5-[(4-chlorophenyl)methyl]-N-(oxan-4-ylmethyl)-4-oxo-2,3,4,5-tetrahydro-1,5-benzothiazepine-7-carboxamide hydrochloride]",1.58 to 5.01 µM,> 5.01 µM,B (IL-2 production at 3 μM compound concentration between 2-10 ng/mL)
"Cl.Cl.N[C@H]1CSc2ccc(C(=O)Nc3cccnc3)cc2N(Cc2ccc(OC(F)(F)F)cc2)C1=O [Example 25, (3R)-3-amino-4-oxo-N-(pyridin-3-yl)-5-{[4-(trifluoromethoxy)phenyl]methyl}-2,3,4,5-tetrahydro-1,5-benzothiazepine-7-carboxamide dihydrochloride]",> 5.01 µM,1.58 to 5.01 µM,C (IL-2 production at 3 μM compound concentration between 2-fold increase as compared to mean IL-2 production of stimulated cells in the absence of compounds and <2 ng/mL)
"Cl.N[C@H]1CSc2ccc(C(=O)NCc3ccc(F)cc3)cc2N(Cc2ccc(Cl)cc2)C1=O [Example 26, (3R)-3-amino-5-[(4-chlorophenyl)methyl]-N-[(4-fluorophenyl)methyl]-4-oxo-2,3,4,5-tetrahydro-1,5-benzothiazepine-7-carboxamide hydrochloride]",< 1.58 µM,1.58 to 5.01 µM,B (IL-2 production at 3 μM compound concentration between 2-10 ng/mL)
"COc1ccc([C@@H](C)NC(=O)c2ccc3c(c2)N(Cc2ccc(Cl)cc2)C(=O)[C@@H](N)CS3)cc1 [Example 27, (3R)-3-amino-5-[(4-chlorophenyl)methyl]-N-[(1R)-1-(4-methoxyphenyl)ethyl]-4-oxo-2,3,4,5-tetrahydro-1,5-benzothiazepine-7-carboxamide]",< 1.58 µM,1.58 to 5.01 µM,B (IL-2 production at 3 μM compound concentration between 2-10 ng/mL)
"Cl.N[C@H]1CSc2ccc(C(=O)NCC3CCCOC3)cc2N(Cc2ccc(Cl)cc2)C1=O (stereo partly drawn) [Example 28, (3R)-3-amino-5-[(4-chlorophenyl)methyl]-N-(oxan-3-ylmethyl)-4-oxo-2,3,4,5-tetrahydro-1,5-benzothiazepine-7-carboxamide hydrochloride]",1.58 to 5.01 µM,> 5.01 µM,C (IL-2 production at 3 μM compound concentration between 2-fold increase as compared to mean IL-2 production of stimulated cells in the absence of compounds and <2 ng/mL)
"Cl.N[C@H]1CSc2ccc(C(=O)NCCCC(F)(F)F)cc2N(Cc2ccc(OC(F)(F)F)cc2)C1=O [Example 29, (3R)-3-amino-4-oxo-N-(4,4,4-trifluorobutyl)-5-{[4-(trifluoromethoxy)phenyl]methyl}-2,3,4,5-tetrahydro-1,5-benzothiazepine-7-carboxamide hydrochloride]",< 1.58 µM,< 1.58 µM,B (IL-2 production at 3 μM compound concentration between 2-10 ng/mL)
"Cl.N[C@H]1CSc2ccc(C(=O)NCC3CCOCC3)cc2N(Cc2ccc(OC(F)(F)F)cc2)C1=O [Example 30, (3R)-3-amino-N-(oxan-4-ylmethyl)-4-oxo-5-{[4-(trifluoromethoxy)phenyl]methyl}-2,3,4,5-tetrahydro-1,5-benzothiazepine-7-carboxamide hydrochloride]",> 5.01 µM,1.58 to 5.01 µM,B (IL-2 production at 3 μM compound concentration between 2-10 ng/mL)
"Cl.N[C@H]1CSc2ccc(C(=O)NCc3ccc(F)cc3)cc2N(Cc2ccc(OC(F)(F)F)cc2)C1=O [Example 31, (3R)-3-amino-N-[(4-fluorophenyl)methyl]-4-oxo-5-{[4-(trifluoromethoxy)phenyl]-methyl}-2,3,4,5-tetrahydro-1,5-benzothiazepine-7-carboxamide hydrochloride]",< 1.58 µM,< 1.58 µM,B (IL-2 production at 3 μM compound concentration between 2-10 ng/mL)

# Reference: patent US10472341B2, “Bicyclic tetrahydrothiazepine derivatives useful for the treatment of neoplastic and/or infectious diseases” (APEIRON BIOLOGICS AG, priority 2015, dated 2019)
